Converted amounts (≈) assume the structure as drawn. Where two headings read alike, the source gives them in different places. A value given as a limit tells only on which side of the number the result lay.

Broadly, the IC50 is the concentration needed to halve the response being measured. The solubility is the concentration that dissolves in the medium under given conditions.

In one series the target is human AT2R fused to Cb23 (Homo sapiens, UniProt P50052). Put plainly: Radioligand binding assay, displacement of 125I-[Sar1, Ile8]-Angiotensin II, hAT2R Cb23. Particulars: displacement of 125I-[Sar1, Ile8]-Angiotensin II, human AT2R fused to Cb23, HEK-293 cell membrane preparations; read-out: Binding affinity on hAT2R_Cb23 IC50. An outline of the steps: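 Membranes from HEK-293 cells expressing human AT2R fused to Cb23 were incubated with 0.05 nM 125I-[Sar1, Ile8]-Angiotensin II in 100 μL buffer (50 mM Tris, 5 mM MgCl2, 1 mM EDTA, 0.1% BSA, pH 7.4) for one hour at 25° C. Ligands were tested as eight-point dose-response curves in duplicate, with C21 and Angiotensin II as references.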
For orientation: In a radioligand displacement assay an active substance lowers the binding of a labelled ligand.

The target in a further series is human AT1R (Homo sapiens (Human), UniProt P30556). The series can be described thus: Counterscreen radioligand binding assay, displacement of 125I-[Sar1, Ile8]-Angiotensin II, hAT1R WT. The following applies: for inhibition at 1 µM / inhibition at 10 µM: 125I-[Sar1, Ile8]-Ang II, semi-quantitative score; for inhibition at 1 µM: compound at 1 μM, read-out: % Displaced radioligand at 1 μM; for inhibition at 10 µM: compound at 10 μM, read-out: % Displaced radioligand at 10 μM; for IC50: HEK-293 cell membranes, read-out: Binding affinity On hAT1R IC50. An outline of the steps: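 Membranes from HEK-293 cells expressing human AT1R were incubated for one hour at 25° C, pH 7.4, with 0.05 nM radiolabelled [Sar1, Ile8]-Ang II and test ligand. Bound radioactivity was collected on PEI-soaked filters, with 10 μM unlabelled [Sar1]-Ang II defining non-specific binding. Results are percent displacement at 1 μM and […], or IC50 from eight-point duplicate curves.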
(In general: Counterscreens check selectivity or assay interference.)

Another series in a line: Kinetic solubility. Type of series: physicochemical. Particulars: kinetic from dmso stock. The protocol:
Starting from a 20 mM stock solution of test compound in 100% DMSO, dilutions were prepared to a theoretical concentration of 400 μM in duplicates in phosphate-buffered saline pH 7.4 (PBS) (138 mM NaCl, 2.7 mM KCl, 10 mM K-phosphate) and 100 mM citrate buffer pH 3.0 with 2% final DMSO.
The experimental compound dilutions in PBS and citrate buffer were further allowed to equilibrate at 25° C. on a thermostatic orbital shaker for two hours and then centrifuged at 14000 rpm, 5 min and filtered through HTS filter plates using a vacuum manifold. The filtrates of test compounds were diluted 2-fold with acetonitrile with 2% DMSO before measuring. In parallel, compound dilutions in 50% acetonitrile/buffer were prepared to the theoretical concentrations of 0 μM (blank), 100 μM, 200 μM and 400 μM with 2% final DMSO to generate calibration curves.
Ondansetron (Sigma Aldrich USA, cat #03639) was used as a reference to control proper assay performance. 200 μl of each sample were transferred to a 96-well plate and solubility was measured in a 200-550 nm range (in steps of 5 nm). The measurements were performed using a Spectra Max Plus reader in UV-Vis mode. Acquisition and analysis of the data were performed using SoftMax Pro v.5.4 (Molecular Devices) and Excel 2010 data analysis software. Proper absorbance wavelengths for calculations were selected for each compound manually based on absorbance maximums (absolute absorbance unit values for the minimum and maximum concentration points within 0-3 OD range). Each of the final datasets was additionally visually evaluated by the operator and goodness of fit (R2) is calculated for each calibration curve.

The next series addresses CYP2C19 (Homo sapiens (Human), UniProt P33261). Put plainly: CYP inhibition, CYP2C19. Format: in vitro ADME. Particulars: test compound at 10 μM, read-out: % Inhibition (PIN) 2C19. The protocol:
(§1) The aim of this assay is to determine the inhibitory potential of a test compound. A major concern for drug-drug-interaction is cytochrome P450 inhibition. Reversible CYP inhibition was determined in human liver microsomes using specific probe substrates for human cytochrome P450 isoenzymes CYP1A2, 2C9, 2C19, 2D6 and 3A4. […]
(§2) A 10 mM stock solution of test compound is prepared in methanol. This stock is further serially diluted 1:3 in methanol and then added to mixture containing 50 mM potassium phosphate buffer pH7.4, human liver microsomes (BD Gentest) and probe substrate. After pre-warming 5 min at 37° C., the reaction is started by adding co-factor mix ([…] glucose-6-phosphate, 1.7 mg/mL NADP, 6 U/mL of glucose-6-phosphate dehydrogenase), resulting in a final concentration of test compound at 10 μM (2% MeOH).
(§3) Final concentrations of co-factor mix components are as follows: 1.56 mg/mL glucose-6-phosphate, 0.34 mg/mL NADP, 1.2 U/mL of glucose-6-phosphate dehydrogenase.
(§4) After incubation at 37° C., the reaction (aliquot of 50 μL) is terminated with 150 μL CH3CN:MeOH (2:1) solution with internal standard (warfarin for 2C9, diclofenac for all other tested isoforms). Samples are centrifuged and the supernatant fractions analyzed by LC-MS/MS.
(§5) The instrument responses (ratio of test compound and internal standard peak areas) are referenced to those for solvent controls (assumed as 100%) in order to determine the percentage reduction in probe metabolism. Percent of control activity vs. concentration plots are generated and fitted using GraphPad Prism software to generate IC50.

For another series, the target named is CYP2D6 (Homo sapiens (Human), UniProt P10635). Put plainly: CYP inhibition, CYP2D6. Format: in vitro ADME. The following applies: test compound at 10 μM, read-out: % Inhibition (PIN) 2D6. The protocol:
as §1, §2, §3, §4, §5

[1] abbreviates: aqueous buffer, kinetic solubility, phosphate-buffered saline pH 7.4, 2% DMSO, 25° C., two hours, read-out: PBS solubility, pH 7.4.
The mark [2] stands for this setting: citrate buffer, 25 °C, pH 3, aqueous buffer, read-out: Citrate buffer solubility, pH 3.0.

Chain of CYP2D6 (P10635 whole entry): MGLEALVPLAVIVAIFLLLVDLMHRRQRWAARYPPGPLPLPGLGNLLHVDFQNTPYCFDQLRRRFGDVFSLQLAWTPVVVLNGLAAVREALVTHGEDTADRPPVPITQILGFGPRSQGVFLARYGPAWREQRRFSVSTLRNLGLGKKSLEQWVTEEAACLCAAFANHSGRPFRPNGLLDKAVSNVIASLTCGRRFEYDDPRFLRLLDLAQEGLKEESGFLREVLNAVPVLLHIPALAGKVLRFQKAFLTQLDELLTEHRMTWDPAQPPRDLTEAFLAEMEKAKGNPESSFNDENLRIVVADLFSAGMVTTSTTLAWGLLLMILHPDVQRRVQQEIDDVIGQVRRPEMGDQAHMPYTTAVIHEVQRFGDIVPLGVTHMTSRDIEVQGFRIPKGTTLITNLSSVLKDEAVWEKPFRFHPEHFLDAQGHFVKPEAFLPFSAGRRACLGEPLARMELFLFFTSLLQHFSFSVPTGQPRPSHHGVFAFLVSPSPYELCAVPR
Chain of human AT2R fused to Cb23 (P50052 whole entry, looked up, the tested form may be a part): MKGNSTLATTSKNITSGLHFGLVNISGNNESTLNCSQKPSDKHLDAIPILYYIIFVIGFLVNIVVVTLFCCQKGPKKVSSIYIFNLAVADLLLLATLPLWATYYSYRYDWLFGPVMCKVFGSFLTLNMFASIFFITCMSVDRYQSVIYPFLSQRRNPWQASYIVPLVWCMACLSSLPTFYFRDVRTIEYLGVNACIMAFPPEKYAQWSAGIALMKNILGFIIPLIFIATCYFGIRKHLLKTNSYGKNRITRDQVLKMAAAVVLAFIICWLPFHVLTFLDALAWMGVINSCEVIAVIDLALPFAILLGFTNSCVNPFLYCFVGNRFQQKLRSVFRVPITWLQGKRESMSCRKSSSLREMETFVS
Chain of human AT1R (P30556 whole entry): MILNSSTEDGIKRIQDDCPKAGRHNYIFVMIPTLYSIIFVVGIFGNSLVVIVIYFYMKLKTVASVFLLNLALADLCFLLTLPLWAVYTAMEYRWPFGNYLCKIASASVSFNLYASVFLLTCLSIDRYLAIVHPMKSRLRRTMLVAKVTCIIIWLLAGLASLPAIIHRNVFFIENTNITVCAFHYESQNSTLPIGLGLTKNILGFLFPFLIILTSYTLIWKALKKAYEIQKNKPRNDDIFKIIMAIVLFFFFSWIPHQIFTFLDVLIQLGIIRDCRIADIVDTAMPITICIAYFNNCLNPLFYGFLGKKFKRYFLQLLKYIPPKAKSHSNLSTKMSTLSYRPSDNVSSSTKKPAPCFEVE
Chain of CYP2C19 (P33261 whole entry): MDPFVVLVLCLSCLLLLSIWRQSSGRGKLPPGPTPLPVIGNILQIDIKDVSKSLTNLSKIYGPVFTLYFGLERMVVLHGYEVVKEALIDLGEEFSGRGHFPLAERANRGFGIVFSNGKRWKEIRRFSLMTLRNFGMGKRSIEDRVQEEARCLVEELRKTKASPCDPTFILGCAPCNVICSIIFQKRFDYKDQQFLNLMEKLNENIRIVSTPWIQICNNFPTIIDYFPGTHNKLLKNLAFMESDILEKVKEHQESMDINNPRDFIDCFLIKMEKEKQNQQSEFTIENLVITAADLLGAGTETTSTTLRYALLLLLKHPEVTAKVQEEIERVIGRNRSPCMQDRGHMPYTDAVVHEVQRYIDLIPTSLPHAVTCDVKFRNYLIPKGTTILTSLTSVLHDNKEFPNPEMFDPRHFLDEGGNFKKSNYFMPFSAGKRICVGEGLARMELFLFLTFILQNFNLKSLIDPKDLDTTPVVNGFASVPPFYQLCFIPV

Take `CCCCOC(=O)NS(=O)(=O)c1ccc(C(F)(F)F)cc1N1CCN(Cc2nc3ccccc3n2C)CC1` [Compound A-09, butyl N-[2-[4-[(1-methylbenzimidazol-2-yl)methyl]piperazin-1-yl]-4-(trifluoromethyl)phenyl]sulfonylcarbamate]: the IC50 at human AT2R fused to Cb23 is 2180 nM; on human AT1R it was 36500 nM. In addition, the inhibition at 1 µM at human AT1R was below 30%. Further, the inhibition at 10 µM at human AT1R was below 30%. Also, the solubility at 2 h in “Kinetic solubility” (setting [1]) is 318 µM (≈ 176 µg/mL); in the series “Kinetic solubility” (setting [2]), at least 400 µM.
Consider `CCCCNC(=O)NS(=O)(=O)c1ccc(C(F)(F)F)cc1N1CCN(Cc2nc3ccccc3n2C)CC1` [Compound A-10, 1-butyl-3-[2-[4-[(1-methylbenzimidazol-2-yl)methyl]piperazin-1-yl]-4-(trifluoromethyl)phenyl]sulfonyl-urea], for which the inhibition at 1 µM at human AT1R was below 30%. Moreover, the inhibition at 10 µM is below 30% at human AT1R, 38.6% at CYP2C19 and 14.8% at CYP2D6. For the same compound, the solubility at 2 h in the series “Kinetic solubility” (setting [1]) and in “Kinetic solubility” (setting [2]) was at least 400 µM each time.
Consider `CCCCNC(=O)NS(=O)(=O)c1ccc(C)cc1N1CCN(Cc2nc3ccccc3n2C)CC1` [Compound A-12, 1-butyl-3-[4-methyl-2-[4-[(1-methylbenzimidazol-2-yl)methyl]piperazin-1-yl]phenyl]sulfonyl-urea], for which the 50% inhibitory concentration (IC50) on human AT2R fused to Cb23 turned out to be 1270 nM. The inhibition at 1 µM on human AT1R was below 30%. For the same compound, the inhibition at 10 µM on human AT1R was below 30%. Also, the solubility at 2 h in “Kinetic solubility” (setting [1]) was 54 µM (≈ 26.9 µg/mL); in “Kinetic solubility” (setting [2]), at least 400 µM.
As to `CC(C)Cc1ccc(-c2nn[nH]n2)c(N2CCN(Cc3nc4ccccc4n3C)CC2)c1` [Compound A-20, 2-[[4-[5-isobutyl-2-(2H-tetrazol-5-yl)-phenyl]piperazin-1-yl]methyl]-1-meth-yl-benzimidazole], the IC50 at human AT2R fused to Cb23 came out at 510 nM. Also, at human AT1R, the inhibition at 1 µM is below 30%, the inhibition at 10 µM was below 30% and the IC50 is 49700 nM. Moreover, the solubility at 2 h in the series “Kinetic solubility” (setting [1]) is at least 400 µM. The solubility at 2 h in “Kinetic solubility” (setting [2]) is at least 400 µM.
Regarding `CC(C)Oc1ccc(-c2nn[nH]n2)c(N2CCN(Cc3nc4ccccc4s3)CC2)c1` [Compound A-51, 2-[[4-[5-isoprop-oxy-2-(2H-tetrazol-5-yl)phenyl]piper-azin-1-yl]methyl]-1,3-benzothiazole], at human AT2R fused to Cb23, the IC50 stood at 2110 nM. In addition, on human AT1R, the inhibition at 1 µM is below 30%, the inhibition at 10 µM is below 30% and the IC50 amounted to 55000 nM. Besides, the solubility at 2 h in “Kinetic solubility” (setting [1]) was at least 400 µM. In addition, in “Kinetic solubility” (setting [2]), the solubility at 2 h turned out to be 4 µM (≈ 1.74 µg/mL).
As to `Cc1cc(CN2CCN(c3cc(CC(C)C)ccc3-c3nn[nH]n3)CC2)no1` [Compound A-82, 3-[[4-[5-isobutyl-2-(2H-tetrazol-5-yl)phenyl]piperazin-1-yl]methyl]-5-methyl-isoxazole], the half-inhibitory concentration (IC50) on human AT2R fused to Cb23 was determined as 3200 nM. On human AT1R, the inhibition at 1 µM is below 30%. For the same compound, the inhibition at 10 µM on human AT1R was below 30%; on CYP2C19, -4.12%; at CYP2D6, -2.54%.
Turning to `CC(C)Cc1ccc(-c2nn[nH]n2)c(N2CCN(Cc3nccn3C)CC2)c1` [Compound A-83, 1-[5-isobutyl-2-(2H-tetrazol-5-yl)-phenyl]-4-[(1-meth-ylimidazol-2-yl)-methyl]piperazine], the IC50 on human AT2R fused to Cb23 is 1780 nM. In addition, on human AT1R, the inhibition at 1 µM is below 30%. Moreover, the figures for the inhibition at 10 µM at human AT1R, on CYP2C19 and at CYP2D6 were below 30%, 6.38% and -0.65%, respectively.
Regarding `CC(C)Cc1ccc(-c2nn[nH]n2)c(N2CCN(Cc3ccnn3C)CC2)c1` [Compound A-84, 1-[5-isobutyl-2-(2H-tetrazol-5-yl)phenyl]-4-[(1-methylpyrazol-5-yl)methyl]piperazine], at human AT2R fused to Cb23, the IC50 worked out at 2370 nM. Also, the inhibition at 1 µM at human AT1R is below 30%. Besides, the inhibition at 10 µM at human AT1R was below 30%; at CYP2C19 it was 18.9%; on CYP2D6, -7.67%.
On to `CC(C)Cc1ccc(-c2nn[nH]n2)c(N2CCN(Cc3ncccn3)CC2)c1` [Compound A-88], for which the IC50 at human AT2R fused to Cb23 amounted to 15500 nM. In addition, the inhibition at 1 µM on human AT1R is below 30%. In addition, the figures for the inhibition at 10 µM on human AT1R, at CYP2C19 and at CYP2D6 were below 30%, 17.6% and 6.32%, respectively.
With `CCC1CN(Cc2cccnn2)CCN1c1cc(CC(C)C)cc(F)c1-c1nn[nH]n1` (stereo not shown) [Compound A-181, 3-[[3-ethyl-4-[3-fluoro-5-isobutyl-2-(2H-tetrazol-5-yl)phenyl]piperazin-1-yl]methyl]pyridazine], at human AT2R fused to Cb23, the IC50 stood at 14.8 nM. Also, at human AT1R, the inhibition at 1 µM is below 30% and the inhibition at 10 µM is below 30%. The solubility at 2 h in “Kinetic solubility” (setting [1]) was at least 400 µM. Further, the solubility at 2 h in the series “Kinetic solubility” (setting [2]) came to 388 µM (≈ 165 µg/mL).
Take `CC(C)Cc1cc(F)c(-c2nn[nH]n2)c(N2CC(C)N(Cc3cccnn3)CC2C)c1` (stereo not shown) [Compound A-183, 3-[[4-[3-fluoro-5-isobutyl-2-(2H-tetrazol-5-yl)phen-yl]-2,5-dimethyl-piperazin-1-yl]-methyl]pyridazine]: the IC50 at human AT2R fused to Cb23 came out at 8.33 nM. Also, on human AT1R, the inhibition at 1 µM was below 30%. For the same compound, the inhibition at 10 µM on human AT1R is below 30%. In addition, the values for the solubility at 2 h in “Kinetic solubility” (setting [1]) and in the series “Kinetic solubility” (setting [2]) were 383 µM (≈ 163 µg/mL) and 377 µM (≈ 160 µg/mL), respectively.
As to `CC(C)Cc1cc(F)c(-c2nn[nH]n2)c(N2CCN(Cc3ccccn3)[C@@H](C)C2)c1` [Compound A-217, (2S)-4-[3-fluoro-5-isobutyl-2-(2H-tetrazol-5-yl)phenyl]-2-methyl-1-(2-pyridylmethyl)piperazine], the IC50 at human AT2R fused to Cb23 was determined as 2.79 nM; on human AT1R it was 17500 nM. For the same compound, on human AT1R, the inhibition at 1 µM was below 30%. The values for the inhibition at 10 µM at human AT1R, at CYP2C19 and on CYP2D6 were 30 to 50%, 39% and 68%, respectively.
For `Cc1cnc(CN2CCN(c3cc(CC(C)C)cc(F)c3-c3nn[nH]n3)C[C@@H]2C)s1` [Compound A-223, 2-[[(2S)-4-[3-fluoro-5-isobutyl-2-(2H-tetrazol-5-yl)phenyl]-2-methyl-piperazin-1-yl]methyl]-5-methyl-thiazole], on human AT2R fused to Cb23, the IC50 worked out at 6 nM. Besides, the inhibition at 1 µM on human AT1R is below 30%. The inhibition at 10 µM on human AT1R was below 30%; on CYP2C19, 25%; at CYP2D6, 15%.

The values above are taken from patent publication US20240368133A1, “Compounds for the Treatment of Pain, in Particular, Neuropathic Pain, and/or Other Diseases or Disorders that are Associated with AT2R and/or AT2R Mediated Signaling” (Confo Therapeutics N.V., priority 2021, published 2024).
